Laboratory results taken from patent publication US20260295053A1, “COMPOUNDS FOR DEGRADATION AND INHIBITION OF KRAS (G12D) PROTEIN” (Shenzhen Ionova Life Science Co., Ltd., priority 2023, published 2026).

Assays:
KRAS (G12D) = target: T1, KRAS (G12D) (Homo sapiens, UniProt P01116, G12D); assay: KRAS (G12D) cellular degradation assay in AsPC-1 cells; assay type: cell-based; conditions: 24 hours, antibody fluorescence (Odyssey CLX), DC50 half-maximal degradation concentration
T1 construct: in-cell western with KRAS G12D antibody after 24 h
T1 sequence (P01116 1-188 isoform P01116-2 G12D): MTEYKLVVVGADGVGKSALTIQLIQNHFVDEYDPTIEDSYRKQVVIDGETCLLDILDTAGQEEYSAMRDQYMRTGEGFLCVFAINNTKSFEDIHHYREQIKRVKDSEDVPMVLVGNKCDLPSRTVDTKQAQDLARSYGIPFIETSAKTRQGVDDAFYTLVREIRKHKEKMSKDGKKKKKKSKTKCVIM
How it was run: (§1)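 Degradation: 22,000 cells/well grown to ~90% confluency, 24 h compound, fixed/permeabilised, anti-KRAS G12D + β-actin antibodies, near-IR fluorescence, DC50. Proliferation: 3,500 cells/well overnight, 6 d compound, CellTiter Glo luminescence, IC50. Dosing […]–1.5 nM final, 1:3 steps.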

AsPC-1 cells = assay: AsPC-1 cell proliferation assay (CellTiter Glo); assay type: cell-based; conditions: 6 days
How it was run: as §1

Row | SMILES | DC50 (KRAS (G12D)) | IC50 (AsPC-1 cells) | IC50 (AsPC-1 cells; Homo sapiens, ASPC1, 144 h)
1 | CCn1nccc1-c1ccc([C@@H](NC(=O)[C@@H]2C[C@@H](O)CN2C(=O)[C@H](C(C)C)n2cc(-c3ccc(COc4c(-c5c(C)c(F)cc6[nH]ncc56)c(C5CC5)cc5c(N6C[C@@H]7C[C@H]6CN7)nc(O[C@H]6C[C@H](OC)C6)nc45)cc3)nn2)[C@H](C)O)c2c1CC2 [Example 147, (2S,4R)-1-((2S)-2-(4-(4-(((4-((1S,4S)-2,5-diazabicyclo[2.2.1]heptan-2-yl)-6-cyclopropyl-7-(6-fluoro-5-methyl-1H-indazol-4-yl)-2-((1r,3S)-3-methoxycyclobutoxy)quinazolin-8-yl)oxy)methyl)phenyl)-1H-1,2,3-triazol-1-yl)-3-methylbutanoyl)-N-((1R,2S)-1-(5-(1-ethyl-1H-pyrazol-5-yl)bicyclo[4.2.0]octa-1(6),2,4-trien-2-yl)-2-hydroxypropyl)-4-hydroxypyrrolidine-2-carboxamide] | < 10 nM |  | < 10 nM
2 | CO[C@@H](C)COc1nc(N2C[C@@H]3C[C@H]2CN3)c2cc(C3CC3)c(-c3c(C)c(F)cc4[nH]ncc34)c(OCc3ccc(-c4cn([C@H](C(=O)N5C[C@H](O)C[C@H]5C(=O)N[C@H](c5ccc(S(F)(F)(F)(F)F)cc5)[C@H](C)O)C(C)C)nn4)cc3)c2n1 [Example 148, (2S,4R)-1-((2S)-2-(4-(4-(((4-((1S,4S)-2,5-diazabicyclo[2.2.1]heptan-2-yl)-6-cyclopropyl-7-(6-fluoro-5-methyl-1H-indazol-4-yl)-2-((S)-2-methoxypropoxy)quinazolin-8-yl)oxy)methyl)phenyl)-1H-1,2,3-triazol-1-yl)-3-methylbutanoyl)-4-hydroxy-N-((1R,2S)-2-hydroxy-1-(4-(pentafluoro-I6-sulfaneyl)phenyl)propyl)pyrrolidine-2-carboxamide] | > 1000 nM |  | > 1000 nM
3 | CCn1nccc1-c1ccc([C@@H](NC(=O)[C@@H]2C[C@@H](O)CN2C(=O)[C@H](C(C)C)n2cc(-c3ccc(COc4c(-c5c(C)c(F)cc6[nH]ncc56)c(C5CC5)cc5c(N6C[C@@H]7C[C@H]6CN7)nc(O[C@H]6CC[C@H](OC)C6)nc45)cc3)nn2)[C@H](C)O)cc1 [Example 151, (2S,4R)-1-((2S)-2-(4-(4-(((4-((1S,4S)-2,5-diazabicyclo[2.2.1]heptan-2-yl)-6-cyclopropyl-7-(6-fluoro-5-methyl-1H-indazol-4-yl)-2-(((1S,3S)-3-methoxycyclopentyl)oxy)quinazolin-8-yl)oxy)methyl)phenyl)-1H-1,2,3-triazol-1-yl)-3-methylbutanoyl)-N-((1R,2S)-1-(4-(1-ethyl-1H-pyrazol-5-yl)phenyl)-2-hydroxypropyl)-4-hydroxypyrrolidine-2-carboxamide] | < 10 nM |  | < 10 nM
4 | CCn1nccc1-c1ccc([C@H](CO)NC(=O)[C@@H]2C[C@@H](O)CN2C(=O)[C@H](C(C)C)n2cc(-c3ccc(COc4c(-c5c(C)c(F)cc6[nH]ncc56)c(C5CC5)cc5c(N6C[C@@H]7C[C@H]6CN7)nc(OC[C@H](C)OC)nc45)cc3)nn2)c2c1CC2 [Example 152, (2S,4R)-1-((2S)-2-(4-(4-(((4-((1S,4S)-2,5-diazabicyclo[2.2.1]heptan-2-yl)-6-cyclopropyl-7-(6-fluoro-5-methyl-1H-indazol-4-yl)-2-((S)-2-methoxypropoxy)quinazolin-8-yl)oxy)methyl)phenyl)-1H-1,2,3-triazol-1-yl)-3-methylbutanoyl)-N—((R)-1-(5-(1-ethyl-1H-pyrazol-5-yl)bicyclo[4.2.0]octa-1(6),2,4-trien-2-yl)-2-hydroxyethyl)-4-hydroxypyrrolidine-2-carboxamide] | < 10 nM |  | < 10 nM

Further lines, results first:

Row | DC50 (KRAS (G12D)) | IC50 (AsPC-1 cells) | IC50 (AsPC-1 cells; Homo sapiens, ASPC1, 144 h) | SMILES
5 | < 10 nM | < 10 nM |  | CO[C@@H](C)COc1nc(N(C)[C@H]2CCNC2)c2cc(C3CC3)c(-c3c(C)c(F)cc4[nH]ncc34)c(OCc3ccc(-c4cn([C@H](C(=O)N5C[C@H](O)C[C@H]5C(=O)N[C@H](c5ccc(-c6scnc6C)cc5)[C@H](C)O)C(C)C)nn4)cc3)c2n1 [Example 143, (2S,4R)-1-((2S)-2-(4-(4-(((6-cyclopropyl-7-(6-fluoro-5-methyl-1H-indazol-4-yl)-2-((S)-2-methoxypropoxy)-4-(methyl((S)-pyrrolidin-3-yl)amino)quinazolin-8-yl)oxy)methyl)phenyl)-1H-1,2,3-triazol-1-yl)-3-methylbutanoyl)-4-hydroxy-N-((1R,2S)-2-hydroxy-1-(4-(4-methylthiazol-5-yl)phenyl)propyl)pyrrolidine-2-carboxamide]
6 | > 1000 nM | > 1000 nM |  | CO[C@@H](C)COc1nc(N(C)[C@H]2CCNC2)c2cc(C3CC3)c(-c3c(C)c(F)cc4[nH]ncc34)c(OCc3ccc(-c4cn([C@H](C(=O)N5C[C@H](O)C[C@H]5C(=O)N[C@H](c5ccc(-c6scnc6C)cc5)[C@H](C)O)C(C)C)nn4)cc3)c2n1 [Example 144, (2S,4R)-1-((2S)-2-(4-(4-(((6-cyclopropyl-7-(6-fluoro-5-methyl-1H-indazol-4-yl)-2-((S)-2-methoxypropoxy)-4-(methyl((S)-pyrrolidin-3-yl)amino)quinazolin-8-yl)oxy)methyl)phenyl)-1H-1,2,3-triazol-1-yl)-3-methylbutanoyl)-4-hydroxy-N-((1R,2S)-2-hydroxy-1-(4-(4-methylthiazol-5-yl)phenyl)propyl)pyrrolidine-2-carboxamide]
7 | < 10 nM |  | < 10 nM | CCn1nccc1-c1ccc([C@@H](NC(=O)[C@@H]2C[C@@H](O)CN2C(=O)[C@H](C(C)C)n2cc(-c3ccc(COc4c(-c5c(C)c(F)cc6[nH]ncc56)c(C5CC5)cc5c(N(C)[C@H]6CCNC6)nc(OC[C@H](C)OC)nc45)cc3)nn2)[C@H](C)O)c2c1CC2 [Example 149, (2S,4R)-1-((2S)-2-(4-(4-(((6-cyclopropyl-7-(6-fluoro-5-methyl-1H-indazol-4-yl)-2-((S)-2-methoxypropoxy)-4-(methyl((S)-pyrrolidin-3-yl)amino)quinazolin-8-yl)oxy)methyl)phenyl)-1H-1,2,3-triazol-1-yl)-3-methylbutanoyl)-N-((1R,2S)-1-(5-(1-ethyl-1H-pyrazol-5-yl)bicyclo[4.2.0]octa-1(6),2,4-trien-2-yl)-2-hydroxypropyl)-4-hydroxypyrrolidine-2-carboxamide]
8 | < 10 nM |  | < 10 nM | Cc1ncsc1-c1ccc([C@@H](NC(=O)[C@@H]2C[C@@H](O)CN2C(=O)[C@H](C(C)C)n2cc(-c3ccc(COc4c(-c5c(C)c(F)cc6[nH]ncc56)c(C5CC5)cc5c(N6C[C@@H]7C[C@H]6CN7)nc(OC6CC7(COC7)C6)nc45)cc3)nn2)[C@@H](C)O)cc1 [Example 150, (2S,4R)-1-((2S)-2-(4-(4-(((2-((2-oxaspiro[3.3]heptan-6-yl)oxy)-4-((1S,4S)-2,5-diazabicyclo[2.2.1]heptan-2-yl)-6-cyclopropyl-7-(6-fluoro-5-methyl-1H-indazol-4-yl)quinazolin-8-yl)oxy)methyl)phenyl)-1H-1,2,3-triazol-1-yl)-3-methylbutanoyl)-4-hydroxy-N-((1R,2R)-2-hydroxy-1-(4-(4-methylthiazol-5-yl)phenyl)propyl)pyrrolidine-2-carboxamide]
